According to patent US20180252700A1, “SCREENING AGENTS IN DRY EYE DISEASE” (Ora, Inc., priority 2016, published 2018):

Target: T1, TRPM8 (Homo sapiens, UniProt Q7Z2W7)
T1 construct: cold receptors express TRPM8 channels, which are sensitive to innocuous cooling; from tissue; host or cells: eye (corneal cold thermoreceptor nerve endings) of living human subjects
Assay: Menthol vs placebo symptom response on 0-10 Cooling Scale, escalating menthol concentrations (Example 1)
Assay type: in vivo
Details: for Is Menthol symptom response significantly higher than placebo? (TSS): Wilcox signed rank test, 95% confidence; for Duration of symptoms (furthest time point post-dose with symptom score higher than 0), mean: average of all concentrations
Procedure: 6 Healthy and 4 Dry Eye individuals participated in a 2-day internal pilot study. Each participant underwent randomized eye, contralateral, 15 μl pipette-instilled dosing of menthol and placebo (Sterile PBS, pH 7.2), across an escalating range of Menthol concentrations. The following dilutions (USP-grade L-Menthol in Sterile PBS, pH 7.2) were initially tested, in the following order (concentrations are w/v):
Post dose, a 0-10 Cooling Scale questionnaire, where 0 represents “No cooling sensation”, and 10 denotes “Maximum cooling sensation”, was asked at the following time points (OD, OS separate; OD represents your right eye and OS represents your left eye): Upon instillation, 30 seconds, 1 minute, 2 minutes, 3 minutes, and 4 minutes—post dose. At least 45 minutes was allowed between each successive dosing to allow for re-sensitization of TRPM8, as well as to allow any analgesic effects of μ-opioid activity to diminish. At the beginning of Visit 1, symptom questionnaires and Ocular Surface Disease Index (OSDI) were asked. After all concentrations of menthol had been tested, Fluorescein staining and Anesthetized Schirmer's test were performed (1 hour washout). The Schirmer test, first described in 1903 by Schirmer, is still the method most commonly used to evaluate aqueous tear production (Schirmer Graefes Arch Clin Exp Ophthalmol. 1903; 56:197-291,1903).
The primary parameter used was Total Symptom Sum, or TSS (sum of all time points), in active eye vs placebo eye. The secondary parameter used was “Upon instillation” Cooling score. FIG. 1 illustrates a frequency distribution of all symptom scores, based on a histogram of the data. […] As such, nonparametric statistical analysis was used to determine if differences exist between treatments (menthol vs placebo). In the following results, a Wilcox Signed Rank test was employed to test the null hypothesis that Menthol and Placebo elicit statistically similar symptom scores on the Cooling Scale. If TTest Stat<TCritical Value. If so, then the null hypothesis can be rejected with 95% confidence.
All concentrations tested are shown in Table 2, below, along with statistical significance indicated for either group according to a Wilcox Signed Rank Test (Total Symptom Sum, Menthol vs Placebo): […]

[1] = Dry Eye Population, Menthol 0.000050 (w/v)
[2] = Dry Eye Population, Menthol 0.000075 (w/v)
[3] = Dry Eye Population, Menthol 0.0001 (w/v)
[4] = Dry Eye Population, Menthol 0.001 (w/v)
[5] = Healthy Population, Menthol 0.001 (w/v)

T1 sequence (Q7Z2W7 whole entry): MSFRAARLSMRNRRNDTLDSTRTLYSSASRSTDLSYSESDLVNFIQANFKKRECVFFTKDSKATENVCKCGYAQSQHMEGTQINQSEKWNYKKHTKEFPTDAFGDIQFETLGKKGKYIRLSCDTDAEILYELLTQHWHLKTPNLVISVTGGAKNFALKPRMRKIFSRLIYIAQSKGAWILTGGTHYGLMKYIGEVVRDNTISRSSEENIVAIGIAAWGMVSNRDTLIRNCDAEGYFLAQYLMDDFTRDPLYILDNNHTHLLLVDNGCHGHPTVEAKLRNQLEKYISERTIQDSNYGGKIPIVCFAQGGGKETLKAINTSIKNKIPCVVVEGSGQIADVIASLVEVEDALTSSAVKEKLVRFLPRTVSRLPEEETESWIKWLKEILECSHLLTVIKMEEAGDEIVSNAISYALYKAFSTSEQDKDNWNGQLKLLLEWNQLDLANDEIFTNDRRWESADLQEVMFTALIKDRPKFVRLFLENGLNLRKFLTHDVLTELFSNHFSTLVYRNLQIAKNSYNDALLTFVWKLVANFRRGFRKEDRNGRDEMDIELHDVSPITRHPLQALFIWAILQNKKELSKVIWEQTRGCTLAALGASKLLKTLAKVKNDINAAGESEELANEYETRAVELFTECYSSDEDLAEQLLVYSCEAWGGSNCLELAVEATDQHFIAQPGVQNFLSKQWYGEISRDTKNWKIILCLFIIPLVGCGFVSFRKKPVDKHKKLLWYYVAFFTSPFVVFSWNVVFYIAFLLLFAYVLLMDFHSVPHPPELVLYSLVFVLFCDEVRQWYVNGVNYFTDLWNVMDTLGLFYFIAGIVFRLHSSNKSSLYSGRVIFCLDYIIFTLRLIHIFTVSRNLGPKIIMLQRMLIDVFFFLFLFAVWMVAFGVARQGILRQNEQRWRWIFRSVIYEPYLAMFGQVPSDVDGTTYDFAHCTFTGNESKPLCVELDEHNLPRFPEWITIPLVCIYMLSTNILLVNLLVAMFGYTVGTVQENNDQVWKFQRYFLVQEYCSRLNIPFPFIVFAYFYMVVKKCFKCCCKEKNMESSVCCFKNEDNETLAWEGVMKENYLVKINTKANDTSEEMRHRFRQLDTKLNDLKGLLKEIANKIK

CC(C)[C@@H]1CC[C@@H](C)C[C@H]1O [Menthol, L-Menthol]
% of population that had significantly higher menthol TSS than placebo TSS (Dry Eye Population, Menthol 0.000001 (w/v)): 0% | % of population that had significantly higher menthol TSS than placebo TSS (Dry Eye Population, Menthol 0.00001 (w/v)): 0% | % of population that had significantly higher menthol TSS than placebo TSS (Dry Eye Population, Menthol 0.000025 (w/v)): 0% | % of population that had significantly higher menthol TSS than placebo TSS [1]: 75% | Is Menthol symptom response significantly higher than placebo? (TSS) [1]: YES | % of population that had significantly higher menthol TSS than placebo TSS [2]: 25% | Is Menthol symptom response significantly higher than placebo? (TSS) [2]: YES | % of population that had significantly higher menthol TSS than placebo TSS [3]: 25% | Is Menthol symptom response significantly higher than placebo? (TSS) [3]: YES | % of population that had significantly higher menthol TSS than placebo TSS [4]: 75% | Is Menthol symptom response significantly higher than placebo? (TSS) [4]: YES | Duration of symptoms (furthest time point post-dose with symptom score higher than 0), mean (Dry Eye, p=0.004 vs Normal): 2.58 min | % of population that had significantly higher menthol TSS than placebo TSS (Healthy Population, Menthol 0.000001 (w/v)): 0% | % of population that had significantly higher menthol TSS than placebo TSS (Healthy Population, Menthol 0.00001 (w/v)): 0% | % of population that had significantly higher menthol TSS than placebo TSS (Healthy Population, Menthol 0.000025 (w/v)): 0% | % of population that had significantly higher menthol TSS than placebo TSS (Healthy Population, Menthol 0.000050 (w/v)): 16% | % of population that had significantly higher menthol TSS than placebo TSS (Healthy Population, Menthol 0.000075 (w/v)): 16% | % of population that had significantly higher menthol TSS than placebo TSS (Healthy Population, Menthol 0.0001 (w/v)): 0% | % of population that had significantly higher menthol TSS than placebo TSS [5]: 50% | Is Menthol symptom response significantly higher than placebo? (TSS) [5]: YES | Correlation score between Menthol TSS and 4-Symptom Questionnaire (Menthol 0.001%): 0.64 | Correlation score between Menthol TSS and Fluorescein Staining (Corneal) (Menthol 0.001%): 0.50 | Correlation score between Menthol TSS and OSDI (Menthol 0.001%): 0.79 | Menthol TSS, Dry Eye vs Normal (Menthol 0.001%): significantly higher than Normal | Duration of symptoms (furthest time point post-dose with symptom score higher than 0), mean (Normal): 1.57 min | "Upon Instillation" menthol symptom response, Normal vs Dry Eye (any concentrations tested, FIG. 3): No significant differences | Symptom response to menthol (TSS), dry eye subjects vs normal (concentrations of 0.0001% and up, FIG. 2): significantly higher in dry eye subjects | Lower concentration at which Dry Eye population can differentiate Menthol from Placebo compared with Normal (from Table 2): 50 fold
